Test results published in ChEMBL document CHEMBL1909046, “DrugMatrix in vitro pharmacology data”.

How the values were obtained:
[1] = target: T1, Alpha-1A adrenergic receptor (Rattus norvegicus, UniProt P43140); experiment: DRUGMATRIX: Alpha-1A adrenergic receptor radioligand binding (ligand: prazosin); type: cell membranes, Wistar, Submaxillary gland, Membrane; conditions: Not Active = under 50% inhibition at 10 µM
T1 sequence (P43140 whole entry): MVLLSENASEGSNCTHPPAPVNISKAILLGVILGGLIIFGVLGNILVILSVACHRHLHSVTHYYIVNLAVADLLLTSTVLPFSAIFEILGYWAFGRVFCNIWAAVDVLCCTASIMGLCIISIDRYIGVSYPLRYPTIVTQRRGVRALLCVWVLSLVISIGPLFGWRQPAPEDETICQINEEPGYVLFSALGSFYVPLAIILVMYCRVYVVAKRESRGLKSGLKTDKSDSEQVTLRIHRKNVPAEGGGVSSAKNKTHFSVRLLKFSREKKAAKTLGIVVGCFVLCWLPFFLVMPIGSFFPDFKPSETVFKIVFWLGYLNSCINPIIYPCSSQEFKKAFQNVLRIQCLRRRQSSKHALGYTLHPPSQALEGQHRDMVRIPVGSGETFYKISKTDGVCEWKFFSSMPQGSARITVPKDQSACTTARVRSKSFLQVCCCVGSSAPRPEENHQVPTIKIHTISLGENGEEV

Endothelin-1 receptor = target: T2, Endothelin-1 receptor (Homo sapiens, UniProt P25101); type: cell membranes, Membrane; conditions: cho-k1; note: in other assays of this panel Not Active means under 50% inhibition at 10 µM
T2 sequence (P25101 whole entry): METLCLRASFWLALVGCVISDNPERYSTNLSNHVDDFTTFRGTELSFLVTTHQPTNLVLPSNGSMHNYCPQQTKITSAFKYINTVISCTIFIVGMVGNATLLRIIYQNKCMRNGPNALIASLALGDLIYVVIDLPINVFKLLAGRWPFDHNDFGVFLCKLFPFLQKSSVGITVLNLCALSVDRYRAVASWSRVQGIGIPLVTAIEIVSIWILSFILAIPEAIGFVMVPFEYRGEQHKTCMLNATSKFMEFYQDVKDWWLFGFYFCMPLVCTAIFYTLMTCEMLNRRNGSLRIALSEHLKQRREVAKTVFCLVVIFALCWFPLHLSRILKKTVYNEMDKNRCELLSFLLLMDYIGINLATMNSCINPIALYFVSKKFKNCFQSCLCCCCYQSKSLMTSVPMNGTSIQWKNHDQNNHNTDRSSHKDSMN

Adenosine receptor A1 = target: T3, Adenosine receptor A1 (Homo sapiens, UniProt P30542); type: cell membranes, CHO, Membrane; conditions: cho;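 note: radioligand binding assay at the adenosine A1 receptor, with DPCPX serving as the labelled ligand; in other assays of this panel Not Active means under 50% inhibition at 10 µM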
T3 sequence (P30542 whole entry): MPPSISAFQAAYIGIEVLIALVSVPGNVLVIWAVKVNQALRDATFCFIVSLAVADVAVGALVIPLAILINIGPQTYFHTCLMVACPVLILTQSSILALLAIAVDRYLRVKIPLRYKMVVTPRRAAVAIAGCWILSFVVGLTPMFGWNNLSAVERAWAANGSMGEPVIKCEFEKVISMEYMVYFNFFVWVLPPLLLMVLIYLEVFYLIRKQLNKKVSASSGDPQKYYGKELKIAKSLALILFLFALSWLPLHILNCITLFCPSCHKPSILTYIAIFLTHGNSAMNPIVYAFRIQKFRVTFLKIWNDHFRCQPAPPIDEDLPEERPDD

[2] = target: T4, Vasoactive intestinal polypeptide receptor 1 (Homo sapiens, UniProt P32241); type: cell membranes, Membrane; conditions: ht-29; note: in other assays of this panel Not Active means under 50% inhibition at 10 µM
T4 sequence (P32241 whole entry): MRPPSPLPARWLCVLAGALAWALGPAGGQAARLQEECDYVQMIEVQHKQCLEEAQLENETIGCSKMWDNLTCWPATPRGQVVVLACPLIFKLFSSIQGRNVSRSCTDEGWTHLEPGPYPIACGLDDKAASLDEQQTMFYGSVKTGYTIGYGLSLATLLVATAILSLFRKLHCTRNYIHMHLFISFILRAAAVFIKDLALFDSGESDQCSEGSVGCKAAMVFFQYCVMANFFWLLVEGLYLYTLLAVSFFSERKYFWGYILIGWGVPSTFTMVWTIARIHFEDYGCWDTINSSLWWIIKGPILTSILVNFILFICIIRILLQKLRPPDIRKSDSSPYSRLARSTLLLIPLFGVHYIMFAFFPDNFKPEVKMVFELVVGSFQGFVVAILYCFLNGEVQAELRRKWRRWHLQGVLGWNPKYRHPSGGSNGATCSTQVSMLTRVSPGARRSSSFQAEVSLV

Cathepsin G = target: T5, Cathepsin G (Homo sapiens, UniProt P08311); type: tissue-based; conditions: neutrophil;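 note: inhibition of Cathepsin G enzyme activity, tested on an AMC-conjugated peptide substrate; in other assays of this panel Not Active means under 50% inhibition at 10 µM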
T5 sequence (P08311 whole entry): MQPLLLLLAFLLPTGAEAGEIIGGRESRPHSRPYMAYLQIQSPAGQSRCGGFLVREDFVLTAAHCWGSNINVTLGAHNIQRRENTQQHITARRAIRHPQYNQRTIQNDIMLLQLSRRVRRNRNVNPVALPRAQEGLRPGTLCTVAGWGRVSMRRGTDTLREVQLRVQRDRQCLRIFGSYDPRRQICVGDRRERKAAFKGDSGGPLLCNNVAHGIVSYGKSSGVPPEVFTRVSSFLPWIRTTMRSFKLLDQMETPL

[3] = target: 5-hydroxytryptamine receptor 4 (Cavia porcellus, UniProt O70528); type: cell membranes, Dunkin-Hartley, Striatum, Membrane; note: in other assays of this panel Not Active means under 50% inhibition at 10 µM
5-hydroxytryptamine receptor 4, sequence (O70528 whole entry): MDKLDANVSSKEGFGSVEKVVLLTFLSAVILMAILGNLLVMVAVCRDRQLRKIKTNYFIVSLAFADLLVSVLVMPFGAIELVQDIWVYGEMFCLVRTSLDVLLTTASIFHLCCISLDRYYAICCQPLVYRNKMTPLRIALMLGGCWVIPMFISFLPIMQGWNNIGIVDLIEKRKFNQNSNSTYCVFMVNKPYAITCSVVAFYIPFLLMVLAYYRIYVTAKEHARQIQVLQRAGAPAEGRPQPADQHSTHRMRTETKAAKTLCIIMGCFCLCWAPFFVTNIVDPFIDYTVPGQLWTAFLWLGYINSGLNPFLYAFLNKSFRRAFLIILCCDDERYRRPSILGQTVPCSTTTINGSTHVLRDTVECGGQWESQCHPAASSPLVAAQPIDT

[4] = target: T6, C-X-C chemokine receptor type 2 (Homo sapiens, UniProt P25025); type: cell membranes, Membrane; conditions: cho-k1; note: in other assays of this panel Not Active means under 50% inhibition at 10 µM
T6 sequence (P25025 whole entry): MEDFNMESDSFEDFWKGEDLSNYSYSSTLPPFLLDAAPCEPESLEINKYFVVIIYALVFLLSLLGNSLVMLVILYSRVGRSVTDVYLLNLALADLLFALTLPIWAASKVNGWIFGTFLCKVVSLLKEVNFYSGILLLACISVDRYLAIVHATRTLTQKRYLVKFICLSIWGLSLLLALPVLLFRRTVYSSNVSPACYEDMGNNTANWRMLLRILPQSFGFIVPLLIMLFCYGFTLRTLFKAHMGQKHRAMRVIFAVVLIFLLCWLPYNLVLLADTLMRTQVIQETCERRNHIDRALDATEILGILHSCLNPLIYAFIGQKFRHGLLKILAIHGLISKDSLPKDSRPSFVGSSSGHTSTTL

[5] = target: 5-hydroxytryptamine receptor 2B (Homo sapiens, UniProt P41595); type: cell membranes, CHO-K1, Membrane; conditions: cho-k1; note: in other assays of this panel Not Active means under 50% inhibition at 10 µM
5-hydroxytryptamine receptor 2B, sequence (P41595 whole entry): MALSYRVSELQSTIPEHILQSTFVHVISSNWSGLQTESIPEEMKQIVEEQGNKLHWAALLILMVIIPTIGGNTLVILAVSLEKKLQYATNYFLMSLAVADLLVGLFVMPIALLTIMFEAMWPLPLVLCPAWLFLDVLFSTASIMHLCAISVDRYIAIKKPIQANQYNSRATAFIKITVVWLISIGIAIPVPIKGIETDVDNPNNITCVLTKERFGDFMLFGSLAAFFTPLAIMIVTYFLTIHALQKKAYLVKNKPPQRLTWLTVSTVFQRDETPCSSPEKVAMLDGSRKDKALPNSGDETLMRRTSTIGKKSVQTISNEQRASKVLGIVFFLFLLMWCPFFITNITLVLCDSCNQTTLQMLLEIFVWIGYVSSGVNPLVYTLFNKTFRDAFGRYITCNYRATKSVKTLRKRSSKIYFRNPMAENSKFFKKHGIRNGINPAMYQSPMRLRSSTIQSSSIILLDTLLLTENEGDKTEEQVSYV

[6] = target: C-C chemokine receptor type 2 (Homo sapiens, UniProt P41597); type: cell membranes, CHO-K1, Membrane; conditions: cho-k1; note: in other assays of this panel Not Active means under 50% inhibition at 10 µM
C-C chemokine receptor type 2, sequence (P41597 whole entry): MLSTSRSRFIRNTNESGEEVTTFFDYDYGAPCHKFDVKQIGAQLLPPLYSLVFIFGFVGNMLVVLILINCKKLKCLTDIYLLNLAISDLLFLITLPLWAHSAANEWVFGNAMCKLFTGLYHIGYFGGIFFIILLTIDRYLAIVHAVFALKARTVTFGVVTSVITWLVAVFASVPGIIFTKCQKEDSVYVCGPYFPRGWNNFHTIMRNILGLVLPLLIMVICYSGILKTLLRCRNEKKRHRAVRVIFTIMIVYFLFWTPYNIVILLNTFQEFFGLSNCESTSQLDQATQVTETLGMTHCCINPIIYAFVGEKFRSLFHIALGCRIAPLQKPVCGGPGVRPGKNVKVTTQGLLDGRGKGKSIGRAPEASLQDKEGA

Measured: IC50

C=CC[C@@H]1/C=C(\C)C[C@H](C)C[C@H](OC)[C@H]2O[C@@](O)(C(=O)C(=O)N3CCCC[C@H]3C(=O)O[C@H](/C(C)=C/[C@@H]3CC[C@@H](O)[C@H](OC)C3)[C@H](C)[C@@H](O)CC1=O)[C@H](C)C[C@@H]2OC [TACROLIMUS ANHYDROUS]
Not Active: [1] | Endothelin-1 receptor | Adenosine receptor A1 | [2] | Cathepsin G | [3] | [4] | [5] | [6]

COc1ccc(C(CN(C)C)C2(O)CCCCC2)cc1 (stereo not drawn) [VENLAFAXINE]
Not Active: [1] | Endothelin-1 receptor | Adenosine receptor A1 | [2] | Cathepsin G | [3] | [4] | [5] | [6]

CC(C)(C)NCC(O)c1cc(O)cc(O)c1 (stereo not drawn) [TERBUTALINE]
Not Active: [1] | Endothelin-1 receptor | Adenosine receptor A1 | [2] | Cathepsin G | [3] | [4] | [5] | [6]

Cc1cc(NS(=O)(=O)c2ccc(N)cc2)no1 [SULFAMETHOXAZOLE]
Not Active: [1] | Endothelin-1 receptor | Adenosine receptor A1 | [2] | Cathepsin G | [3] | [4] | [5] | [6]

COC(=O)c1ccc(O)cc1 [METHYLPARABEN]
Not Active: [1] | Endothelin-1 receptor | Adenosine receptor A1 | [2] | Cathepsin G | [3] | [4] | [5] | [6]

Cc1ncc([N+](=O)[O-])n1CC(C)O (stereo not drawn) [SECNIDAZOLE]
Not Active: [1] | Endothelin-1 receptor | Adenosine receptor A1 | [2] | Cathepsin G | [3] | [4] | [5] | [6]

CCC[C@@H]1C[C@@H](C(=O)N[C@@H]([C@H]2O[C@H](SC)[C@H](O)[C@@H](O)[C@H]2O)[C@@H](C)O)N(C)C1 [LINCOMYCIN]
Not Active: [1] | Endothelin-1 receptor | Adenosine receptor A1 | [2] | Cathepsin G | [3] | [4] | [5] | [6]
